Calls of active or inactive are those of the source. No cut-off for these calls is given here.
Legend:
[1] = Cytotoxicity against mouse GL26 cells assessed as inhibition of cell growth incubated for 48 hrs by MTT assay; assay type: functional, cell-based; details: GL26, 48 h
[2] = test system: GL26; experiment: Antiproliferative activity against mouse GL26 cells assessed as decrease in number of colonies at 0.625 to 1.25 uM incubated for 48 hrs by colony formation assay; assay type: functional, cell-based; details: dose 0.625-1.25 µM
[3] = target: Histone deacetylase 1 (Homo sapiens, UniProt Q13547); experiment: Inhibition of human HDAC1 (379 to 382 residues) using RHKKAc-AMC fluorogenic peptide as substrate by fluorescence assay
Sequence of Histone deacetylase 1 (Q13547 whole entry, the tested form may be a part): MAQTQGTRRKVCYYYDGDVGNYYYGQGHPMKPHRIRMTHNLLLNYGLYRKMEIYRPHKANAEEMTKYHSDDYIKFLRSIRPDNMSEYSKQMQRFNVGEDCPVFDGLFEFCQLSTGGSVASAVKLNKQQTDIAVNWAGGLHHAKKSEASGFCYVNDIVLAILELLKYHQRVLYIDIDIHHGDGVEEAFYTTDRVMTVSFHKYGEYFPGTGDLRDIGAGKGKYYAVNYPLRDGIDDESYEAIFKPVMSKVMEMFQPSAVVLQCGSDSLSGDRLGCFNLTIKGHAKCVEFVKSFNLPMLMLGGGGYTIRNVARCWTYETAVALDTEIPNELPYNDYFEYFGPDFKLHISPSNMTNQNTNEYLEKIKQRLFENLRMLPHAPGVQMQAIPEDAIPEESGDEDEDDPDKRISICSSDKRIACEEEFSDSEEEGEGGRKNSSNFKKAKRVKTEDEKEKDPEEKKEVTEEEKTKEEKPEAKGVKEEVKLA

[4] = target: Histone deacetylase 2 (Homo sapiens, UniProt Q92769); experiment: Inhibition of human HDAC2 (379 to 382 residues) using RHKKAc-AMC fluorogenic peptide as substrate by fluorescence assay
Sequence of Histone deacetylase 2 (Q92769 whole entry, the tested form may be a part): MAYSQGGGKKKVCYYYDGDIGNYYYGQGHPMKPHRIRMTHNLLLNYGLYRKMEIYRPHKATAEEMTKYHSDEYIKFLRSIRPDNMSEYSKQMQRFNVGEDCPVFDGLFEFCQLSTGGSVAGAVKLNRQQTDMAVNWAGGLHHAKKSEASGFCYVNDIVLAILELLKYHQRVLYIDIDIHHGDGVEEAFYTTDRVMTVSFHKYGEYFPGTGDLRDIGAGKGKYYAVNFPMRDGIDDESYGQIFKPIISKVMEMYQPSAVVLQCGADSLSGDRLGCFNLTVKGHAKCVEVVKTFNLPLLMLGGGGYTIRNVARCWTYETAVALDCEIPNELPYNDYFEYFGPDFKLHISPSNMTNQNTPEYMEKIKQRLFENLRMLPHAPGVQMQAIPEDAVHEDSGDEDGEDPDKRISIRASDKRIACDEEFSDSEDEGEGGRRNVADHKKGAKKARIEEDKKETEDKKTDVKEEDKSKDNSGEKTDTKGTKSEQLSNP

[5] = target: T1, Protein deacetylase HDAC6 (Homo sapiens, UniProt Q9UBN7); experiment: Inhibition of human HDAC6 (379 to 382 residues) using RHKKAc fluorogenic peptide as substrate by fluorescence assay
T1 sequence (Q9UBN7 whole entry): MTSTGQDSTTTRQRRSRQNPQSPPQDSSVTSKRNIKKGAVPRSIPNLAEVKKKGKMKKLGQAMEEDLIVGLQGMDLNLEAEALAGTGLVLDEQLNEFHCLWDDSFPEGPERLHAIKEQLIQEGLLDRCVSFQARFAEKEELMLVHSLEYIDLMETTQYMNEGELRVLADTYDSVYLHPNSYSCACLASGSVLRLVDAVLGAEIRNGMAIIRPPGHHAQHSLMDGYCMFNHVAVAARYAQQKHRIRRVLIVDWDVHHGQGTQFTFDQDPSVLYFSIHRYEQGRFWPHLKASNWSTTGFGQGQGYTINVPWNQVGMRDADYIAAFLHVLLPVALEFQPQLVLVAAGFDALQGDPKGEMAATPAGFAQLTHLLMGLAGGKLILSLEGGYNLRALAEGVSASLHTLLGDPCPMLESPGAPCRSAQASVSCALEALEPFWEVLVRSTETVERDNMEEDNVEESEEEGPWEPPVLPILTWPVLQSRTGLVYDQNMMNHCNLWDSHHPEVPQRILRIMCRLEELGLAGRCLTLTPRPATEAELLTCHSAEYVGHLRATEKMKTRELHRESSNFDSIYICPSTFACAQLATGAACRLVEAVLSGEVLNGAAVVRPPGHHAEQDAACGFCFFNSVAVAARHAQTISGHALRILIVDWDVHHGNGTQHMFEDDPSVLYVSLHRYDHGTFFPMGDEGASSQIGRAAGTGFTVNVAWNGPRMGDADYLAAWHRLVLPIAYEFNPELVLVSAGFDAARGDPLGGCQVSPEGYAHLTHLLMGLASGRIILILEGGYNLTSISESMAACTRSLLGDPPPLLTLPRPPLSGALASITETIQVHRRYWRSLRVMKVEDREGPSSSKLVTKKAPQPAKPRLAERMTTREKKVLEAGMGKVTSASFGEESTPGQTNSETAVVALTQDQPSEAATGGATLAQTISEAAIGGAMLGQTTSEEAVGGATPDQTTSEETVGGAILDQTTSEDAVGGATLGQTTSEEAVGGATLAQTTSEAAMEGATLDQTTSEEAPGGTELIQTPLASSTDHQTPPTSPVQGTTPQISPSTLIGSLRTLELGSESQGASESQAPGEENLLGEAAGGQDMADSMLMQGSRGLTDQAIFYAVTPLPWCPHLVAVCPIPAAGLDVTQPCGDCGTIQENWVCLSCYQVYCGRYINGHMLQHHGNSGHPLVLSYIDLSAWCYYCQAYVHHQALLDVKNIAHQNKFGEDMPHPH

[6] = target: T2, Histone deacetylase 8 (Homo sapiens, UniProt Q9BY41); experiment: Inhibition of human HDAC8 (379 to 382 residues) using RHKKAcKAc-AMC fluorogenic peptide as substrate by fluorescence assay
T2 sequence (Q9BY41 whole entry): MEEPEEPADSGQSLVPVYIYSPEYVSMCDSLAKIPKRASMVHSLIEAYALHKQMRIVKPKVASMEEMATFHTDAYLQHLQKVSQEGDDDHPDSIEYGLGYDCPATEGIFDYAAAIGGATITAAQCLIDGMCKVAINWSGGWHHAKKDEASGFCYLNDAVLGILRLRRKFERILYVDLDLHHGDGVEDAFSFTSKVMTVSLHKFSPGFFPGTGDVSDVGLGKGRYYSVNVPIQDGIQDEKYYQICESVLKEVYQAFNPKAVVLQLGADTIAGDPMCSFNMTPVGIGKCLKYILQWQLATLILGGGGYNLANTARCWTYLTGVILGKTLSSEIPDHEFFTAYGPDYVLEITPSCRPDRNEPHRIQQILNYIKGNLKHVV

[7] = test system: U-251; experiment: cells; assay type: functional, cell-based; details: Homo sapiens, U-251, 48 h
Description: Cytotoxicity against human TMZ-sensitive U251 cells assessed as inhibition of cell growth incubated for 48 hrs by MTT assay

[8] = test system: Mus musculus; experiment: In vivo inhibition of MAO-A in C57BL6 mouse xenografted with mouse GL26 cells as decrease in MAO activity in brain at 50 mg/kg, ip by radiometric analysis; assay type: functional, organism-based
[9] = test system: GL26; experiment: Antitumor activity against mouse GL26 cells implanted in C57BL6 mouse assessed as reduction in tumor size at 50 mg/kg, ip daily measured for 10 days by bioluminescence assay; assay type: functional, organism-based; details: time 10.0 day
[10] = test system: Mus musculus; experiment: In vivo inhibition of MAO-A in mouse xenografted with mouse GL26 assessed as decrease in MAO activity in tumor at 50 mg/kg by radiometric analysis; assay type: functional
[11] = test system: Mus musculus; experiment: In vivo inhibition of MAO-A in mouse xenografted with mouse GL26 assessed as decrease in MAO activity in brain at 25 mg/kg, ip administered for 10 days by bioluminescence assay; assay type: functional, organism-based; details: time 10.0 day
[12] = test system: Mus musculus; experiment: In vivo inhibition of MAO-A in mouse xenografted with mouse GL26 assessed as decrease in MAO activity in tumor at 25 mg/kg, ip administered for 10 days by bioluminescence assay; assay type: functional, organism-based; details: time 10.0 day
[13] = Toxicity in mouse bearing intracranial tumor assessed as assessed as median survival time at 50 mg/kg, ip for 14 days treatment started at 5 days post-infection (Rvb=12.8 days); assay type: organism-based; details: in vivo, 336 h, time 14 day
[14] = Toxicity in mouse bearing intracranial tumor assessed as assessed as median survival time at 25 mg/kg, ip treatment started at 7 dpi (Rvb=18.25 days); assay type: organism-based; details: in vivo, 438 h
[15] = Toxicity in mouse bearing intracranial tumor assessed as last day of survival at 25 mg/kg, ip treatment started at 7 dpi (Rvb=19 days); assay type: organism-based; details: in vivo, 456 h

| SMILES | IC50 [1] | Activity ([2]; DDE = dose-dependent effect) | IC50 [3] | IC50 [4] | IC50 [5] | IC50 [6] | IC50 [7] | Activity [8] | Activity [9] | Activity [10] | Activity [11] | Activity [12] | MST [13] | MST [14] | Survival [15] | Activity [2] |
| --- | --- | --- | --- | --- | --- | --- | --- | --- | --- | --- | --- | --- | --- | --- | --- | --- |
| C#CCN(C)CCCOc1cc(NCc2ccc(/C=C/C(=O)NO)cc2)ccc1Cl | 120 nM | Dde | 510 nM | 1160 nM | 100 nM | 80 nM | 3240 nM | Active | Active | Active | Active | Active | 12.75 days | 19.5 days | 22 days | – |
| C#CCN(C)CCCOc1ccc(NC(=O)CCCCCCC(=O)NO)cc1Cl | 6040 nM | – | 140 nM | 460 nM | 6 nM | 330 nM | 2830 nM | Active | Active | Active | Active | Active | 14.25 days | 17.25 days | 20 days | Active |

— ChEMBL document CHEMBL5154693, “N-Methylpropargylamine-Conjugated Hydroxamic Acids as Dual Inhibitors of Monoamine Oxidase A and Histone Deacetylase for Glioma Treatment” (J Med Chem, 2022)
